Laboratory results: the NIST ThermoML archive (doi:10.1021/je060271a)
± gives the expanded uncertainty stated by the source.

Details: 323.16 K, Liquid, Vibrating tube method

CCCCCC(=O)OCC(COC(=O)CCCCC)(COC(=O)CCCCC)COC(=O)CCCCC [pentaerythritol tetrahexanoate]
Details	mass density [kg/m3]
24638 kPa	989 ± 1.2
24665 kPa	988.9 ± 1.2
24693 kPa	988.9 ± 1.2
24716 kPa	988.9 ± 1.2
24744 kPa	989 ± 1.2
24772 kPa	989 ± 1.2
24795 kPa	988.9 ± 1.2
24822 kPa	989 ± 1.2
24849 kPa	989 ± 1.2
24876 kPa	989.1 ± 1.2
24905 kPa	989 ± 1.2
24928 kPa	989.2 ± 1.2
24956 kPa	989.1 ± 1.2
24984 kPa	989.2 ± 1.2
25012 kPa	989.1 ± 1.2
25040 kPa	989.2 ± 1.2
25063 kPa	989.1 ± 1.2
25092 kPa	989.2 ± 1.2
25120 kPa	989.4 ± 1.2
25148 kPa	989.3 ± 1.2
25172 kPa	989.1 ± 1.2
25200 kPa	989.2 ± 1.2
25228 kPa	989.4 ± 1.2
25257 kPa	989.3 ± 1.2
25286 kPa	989.2 ± 1.2
25314 kPa	989.3 ± 1.2
25339 kPa	989.4 ± 1.2
25368 kPa	989.4 ± 1.2
25397 kPa	989.3 ± 1.2
25422 kPa	989.4 ± 1.2
25450 kPa	989.4 ± 1.2
25480 kPa	989.3 ± 1.2
25509 kPa	989.4 ± 1.2
26056 kPa	989.7 ± 1.2
26083 kPa	989.7 ± 1.2
26111 kPa	989.8 ± 1.2
26138 kPa	989.8 ± 1.2
26161 kPa	989.8 ± 1.2
26189 kPa	989.8 ± 1.2
26217 kPa	989.8 ± 1.2
26244 kPa	989.9 ± 1.2
26266 kPa	989.9 ± 1.2
26294 kPa	989.9 ± 1.2
26321 kPa	989.9 ± 1.2
26349 kPa	989.9 ± 1.2
26377 kPa	989.9 ± 1.2
26405 kPa	990 ± 1.2
26428 kPa	990 ± 1.2
26456 kPa	990 ± 1.2
26485 kPa	990 ± 1.2
26516 kPa	990 ± 1.2
26539 kPa	990.1 ± 1.2
26567 kPa	990.1 ± 1.2
26596 kPa	990.2 ± 1.2
26620 kPa	990.1 ± 1.2
26648 kPa	990.1 ± 1.2
26677 kPa	990.1 ± 1.2
26706 kPa	990.2 ± 1.2
26734 kPa	990.2 ± 1.2
27187 kPa	990.3 ± 1.2
27218 kPa	990.5 ± 1.2
27243 kPa	990.5 ± 1.2
27273 kPa	990.4 ± 1.2
27304 kPa	990.6 ± 1.2
27334 kPa	990.6 ± 1.2
27359 kPa	990.6 ± 1.2
27390 kPa	990.6 ± 1.2
27420 kPa	990.5 ± 1.2
27451 kPa	990.6 ± 1.2
27481 kPa	990.7 ± 1.2
27507 kPa	990.6 ± 1.2
27538 kPa	990.7 ± 1.2
27569 kPa	990.7 ± 1.2
27601 kPa	990.7 ± 1.2
27627 kPa	990.7 ± 1.2
27659 kPa	990.8 ± 1.2
27690 kPa	990.8 ± 1.2
27722 kPa	990.8 ± 1.2
27748 kPa	990.8 ± 1.2
27781 kPa	990.7 ± 1.2
27814 kPa	990.9 ± 1.2
27846 kPa	990.8 ± 1.2
27871 kPa	990.8 ± 1.2
27898 kPa	991 ± 1.2
27926 kPa	990.9 ± 1.2
27954 kPa	990.9 ± 1.2
27978 kPa	991 ± 1.2
28006 kPa	990.8 ± 1.2
28034 kPa	990.9 ± 1.2
28308 kPa	991.1 ± 1.2
28332 kPa	991.2 ± 1.2
28361 kPa	991.2 ± 1.2
28389 kPa	991.2 ± 1.2
28418 kPa	991.2 ± 1.2
28471 kPa	991.3 ± 1.2
28499 kPa	991.1 ± 1.2
28529 kPa	991.2 ± 1.2
28553 kPa	991.1 ± 1.2
28582 kPa	991.2 ± 1.2
28611 kPa	991.3 ± 1.2
28640 kPa	991.4 ± 1.2
29189 kPa	991.7 ± 1.2
29221 kPa	991.7 ± 1.2
29253 kPa	991.7 ± 1.2
29279 kPa	991.7 ± 1.2
29311 kPa	991.8 ± 1.2
29343 kPa	991.8 ± 1.2
29373 kPa	991.8 ± 1.2
29395 kPa	991.8 ± 1.2
29423 kPa	991.8 ± 1.2
29446 kPa	991.7 ± 1.2
29473 kPa	991.8 ± 1.2
29500 kPa	991.8 ± 1.2
29527 kPa	991.9 ± 1.2
29603 kPa	991.9 ± 1.2
29630 kPa	991.8 ± 1.2
29657 kPa	992.1 ± 1.2
29680 kPa	992 ± 1.2
29707 kPa	992 ± 1.2
29734 kPa	992 ± 1.2
29999 kPa	992.1 ± 1.2
30027 kPa	992.1 ± 1.2
30055 kPa	992.3 ± 1.2
30079 kPa	992.1 ± 1.2
30107 kPa	992.1 ± 1.2
30135 kPa	992.2 ± 1.2
30159 kPa	992.4 ± 1.2
30188 kPa	992.3 ± 1.2
30217 kPa	992.3 ± 1.2
30245 kPa	992.2 ± 1.2
30273 kPa	992.4 ± 1.2
30301 kPa	992.4 ± 1.2
30326 kPa	992.2 ± 1.2
30354 kPa	992.4 ± 1.2
30383 kPa	992.3 ± 1.2
30407 kPa	992.4 ± 1.2
30436 kPa	992.4 ± 1.2
30579 kPa	992.4 ± 1.2
30610 kPa	992.4 ± 1.2
30641 kPa	992.5 ± 1.2
30672 kPa	992.6 ± 1.2
30697 kPa	992.5 ± 1.2
30725 kPa	992.6 ± 1.2
30749 kPa	992.7 ± 1.2
30774 kPa	992.6 ± 1.2
